Measured values taken from article PMC9693123 (2022).

Experiments:
[1] = tested on: Tel12 (DNA, G4) TAGGGTTAGGGT; test: UV-vis titration, HypSpec2014 fit; settings: KCl 0.1 M, NaCacodylate 2.5 mM, pH 7.0, 25 °C
[2] = tested on: Tel23 (DNA, G4) TAGGGTTAGGGTTAGGGTTAGGG; test: UV-vis titration, HypSpec2014 fit; settings: KCl 0.1 M; NaCacodylate 2.5 mM, pH 7.0, 25 °C
[3] = tested on: Tel23 (DNA, G4) TAGGGTTAGGGTTAGGGTTAGGG; test: UV melting at 295 nm; settings: KCl 0.1 M; NaCacodylate 2.5 mM, pH 7.0; ligand 1.40 × 10^-5 M, Tel23 1.38 × 10^-5 M
[4] = tested on: Tel12 (DNA, G4) TAGGGTTAGGGT; test: UV melting at 295 nm; settings: KCl 0.1 M; NaCacodylate 2.5 mM, pH 7.0; ligand 1.75 × 10^-5 M, Tel12 1.87 × 10^-5 M
[5] = tested on: Tel12 (DNA, G4) TAGGGTTAGGGT; test: X-ray crystallography; settings: K+ in channel

LogK [1]	LogK [2]	ΔTm [3]	ΔTm [4]	binding ([5]; 0.05 M KCacodylate, 0.1 M Li2SO4, pH 6.5, 20% v/v PEG400)	binding ([5]; 0.1 M NaI in crystallizing solution, 0.05 M NaCacodylate pH 6.5, 35% v/v MPD)	LogK ([1]; 1:1 step, further 1:2 ligand:G4 adduct also fitted)	SMILES
7.0 ± 0.2	5.2 ± 0.2	5.9 ± 1.0 °C	8.7 ± 1.5 °C	yes	–	–	COc1ccc2c(CCCCc3ccncc3)c3[n+](cc2c1OC)CCc1cc2c(cc1-3)OCO2
6.6 ± 0.2	5.8 ± 0.2	2.3 ± 0.6 °C	16.7 ± 1.3 °C	–	–	–	COc1ccc2c(CCCc3ccncc3)c3[n+](cc2c1OC)CCc1cc2c(cc1-3)OCO2
6.1 ± 0.2	4.0 ± 0.3	4.1 ± 0.8 °C	9.7 ± 1.8 °C	–	yes	–	COc1ccc2c(CCc3ccncc3)c3[n+](cc2c1OC)CCc1cc2c(cc1-3)OCO2

More lines, now with the values behind:

SMILES	LogK [1]	LogK [2]	ΔTm [3]	ΔTm [4]	binding ([5]; 0.05 M KCacodylate, 0.1 M Li2SO4, pH 6.5, 20% v/v PEG400)	binding ([5]; 0.1 M NaI in crystallizing solution, 0.05 M NaCacodylate pH 6.5, 35% v/v MPD)	LogK ([1]; 1:1 step, further 1:2 ligand:G4 adduct also fitted)
COc1ccc2c(CCCCCc3ccncc3)c3[n+](cc2c1OC)CCc1cc2c(cc1-3)OCO2	7.2 ± 0.2	5.6 ± 0.2	5.1 ± 1.1 °C	15.0 ± 1.4 °C	–	–	–
COc1ccc2c(Cc3ccncc3)c3[n+](cc2c1OC)CCc1cc2c(cc1-3)OCO2	–	4.4 ± 0.2	4.1 ± 0.4 °C	14.4 ± 1.5 °C	–	–	6.0 ± 0.2
